Entries after “also recorded” stand apart in the source; their conditions may differ. Read-outs that look alike come from different tables or passages of the source. Marks after values point to notes of the source that are not given here.
Legend:
[1] = tested on: MDA-MB-231 xenograft tumors; assay: MDA-MB-231 orthotopic breast cancer xenograft model; format: in vivo; conditions: 3.19.3 10 mg/kg 2×wk i.p., AZD6495 30 mg/kg bid p.o. 18 d, combination of both
Protocol: The anti-tumor activity of the anti-Angiopoietin-2 monoclonal antibody 3.19.3 in combination with the small molecule CSF1R tyrosine kinase inhibitor AZD6495 was evaluated in a xenograft model of human breast carcinoma using the MDA-MB-231 cell line (FIG. 5a).
Breast adenocarcinoma MDA-MB-231 cells were cultured in flasks as routine until the cells reach sub-confluence. Immunodeficient 7-10 week old female nude mice were orthotopically implanted with 8×10^6 MDA-MB-231 cells suspended 1:1 in Matrigel into the mammary fat pad. The mice were then randomized into cohorts containing 10 mice once the tumors reached approximately 100 mm^3. The mice were treated by intraperitoneally (IP) injection with mAb 3.19.3 (10 mg/kg) twice per week for 3 weeks thereafter, or by oral administration of AZD6495 (30 mg/kg) following bid dosing for 18 days. […] The body weights of each animal, and the dimensions of each tumor were measured twice per week. The volume of the tumor was calculated as: Volume=Length×(Width)^2×0.5 cm^3, or by bilateral Vernier caliper measurement and, taking length to be the longest diameter across the tumor and width the corresponding perpendicular, calculated using the formula (π/6)×(length×width)×√(length×width). Growth inhibition from the start of treatment was assessed by comparison of the differences in tumor volume between control and treated groups.

H460 xenograft tumors [2] = format: in vivo; conditions: 3.19.3 10 mg/kg 2×wk i.p., Oxaliplatin 5 mg/kg/week i.p., combination of both
Protocol: (§1) The anti-tumor activity of 3.19.3 was evaluated in combination with Oxaliplatin in the H460 xenograft model of lung cancer. H460 cells were cultured in flasks as routine until the cells reached sub-confluence. Cell suspensions containing approximately 3×10E6 cells were injected subcutaneously into the flank of female Swiss nude mice. When the tumor volume reached 200 mm^3, the mice were randomized in treatment groups of 8-10 mice and the treatments were initiated. 3.19.3 (10 mg/kg) in saline was injected intraperitoneally, twice per week for 2 weeks. Oxaliplatin (5 mg/kg) was administered by intraperitoneal administration following a weekly schedule. The dimensions of each tumor and body weights were measured at least twice per week. The volume of the tumor was calculated as: Volume=Length×(Width)×0.5 (cm^3).

MCF7 xenograft tumors = assay: MCF7 breast cancer xenograft model; format: in vivo; conditions: 3.19.3 10 mg/kg 2×wk i.p., AZD6495 30 mg/kg bid p.o. 18 d, combination of both
Protocol: The anti-tumor activity of the anti-Angiopoietin-2 monoclonal antibody 3.19.3 in combination with the small molecule CSF1R tyrosine kinase inhibitor AZD6495 (4-[(2,4-difluorophenyl)amino]-7-ethoxy-6-(4-methylpiperazin-1-yl)quinoline-3-carboxamide) was evaluated in a xenograft model of human breast carcinoma using the MCF7 cell line (FIG. 4a).
Materials and Methods: Breast carcinoma MCF7 cells were cultured in flasks as routine until the cells reach sub-confluence. Immunodeficient 7-10 week old male NCr-nude mice were subcutaneously implanted with 8×10^6 MCF7 cells suspended 1:1 in Matrigel in the right flank. […]
The mice were then randomized into cohorts containing 15 mice once the tumors reached approximately 100 mm^3. […] The body weights of each animal, and the dimensions of each tumor were measured twice per week. The volume of the tumor was calculated as: Volume=Length×(Width)^2×0.5 cm^3, or by bilateral Vernier caliper measurement and, taking length to be the longest diameter across the tumor and width the corresponding perpendicular, calculated using the formula (π/6)×(length×width)×√(length×width). Growth inhibition from the start of treatment was assessed by comparison of the differences in tumor volume between control and treated groups.

[3] = tested on: collagen-induced arthritis; assay: Collagen-induced arthritis (CIA), dose response (Example 11); format: in vivo, male DBA/1 mice
Calu6 xenograft tumors = format: in vivo; conditions: 3.19.3 10 mg/kg 2×wk i.p., Docetaxel 15 mg/kg/week i.v., combination of both
Protocol: as §1, with “with Docetaxel” for “with Oxaliplatin”, “the Calu6” for “the H460”, “cancer. Calu6” for “cancer. H460”, “weeks. Docetaxel (15” for “weeks. Oxaliplatin (5”, “by intravenous” for “by intraperitoneal”

H460 xenograft tumors [4] = format: in vivo; conditions: 3.19.3 10 mg/kg 2×wk i.p., AZD4877 10 mg/kg q4dx2 i.p., combination of both
Protocol: The anti-tumor activity of 3.19.3 was evaluated in combination with AZD4877 in the
H460 xenograft model of lung cancer. H460 cells were cultured in flasks as routine until the cells reached sub-confluence. Cell suspensions containing approximately 3×10E6 cells were injected subcutaneously into the right flank of male NCr nu/nu mice. When the tumor volume reached 200 mm^3, the mice were randomized in treatment groups of 8-10 mice and the treatments were initiated. 3.19.3 (10 mg/kg) in saline was injected intraperitoneally, twice per week for 2 weeks. AZD4877 (10 mg/kg) was administered by intraperitoneal administration following a q4d schedule. The dimensions of each tumor and body weights were measured at least twice per week. The volume of the tumor was calculated as: Volume=Length×(Width)×0.5 (cm^3).

[5] = 0.1 mg/kg ip every 3 days for 14 days from disease onset
[6] = 1 mg/kg ip every 3 days for 14 days from disease onset
[7] = 10 mg/kg ip every 3 days for 14 days from disease onset

3.19.3: fully human anti-Ang-2 monoclonal antibody, wild type control; light chain SEQ ID No. 1, heavy chain SEQ ID No. 2 [Antibody 3.19.3]
% tumor growth inhibition [1]: 17% | % tumor growth inhibition (H460 xenograft tumors [2]): 67% | % tumor growth inhibition (MCF7 xenograft tumors): 62% | % inhibition (AUC of Clinical Score) [3, 5]: 16% +/− 13% | AUC of Clinical Score [3, 5]: 99 +/− 15 | % inhibition (AUC of Clinical Score) [3, 6]: 53% +/− 7%* | AUC of Clinical Score [3, 6]: 46 +/− 9 | % inhibition (AUC of Clinical Score) [3, 7]: 44% +/− 9%* | AUC of Clinical Score [3, 7]: 67 +/− 11 | CD31+ microvessel density in synovium (in words) ([3]; 3.19.3 0.1 mg/kg): no effect | histopathological evaluation: synovial hyperplasia, synovitis, pannus, synovial fibrosis, periostitis (in words) ([3]; 3.19.3 0.1, 1 and 10 mg/kg, isotype control vs PBS vehicle): dose-dependent anti-arthritic effect | CD31+ microvessel density in synovium (in words) ([3]; 3.19.3 at 1 and 10 mg/kg, prednisolone 3 mg/kg): significant reduction in microvessel density; also recorded: significant reduction in the presence of microvessels | clinical signs of disease progression (arthritic score) (in words) ([3]; doses of 1 and 10 mg/kg): significant reduction | % tumor growth inhibition (Calu6 xenograft tumors): 20% | % tumor growth inhibition (H460 xenograft tumors [4]): 64%

From patent publication US8507656B2, “Stabilized angiopoietin-2 antibodies and uses thereof” (MedImmune Limited, priority 2008, dated 2013)
